Source: US11446287B2, “Compounds and methods for EP300 or CBP modulation and indications therefor” (Opna Immuno-Oncology SA, priority 2019, dated 2022)

Molecular target: T1, Recombinant human EP300 containing the bromodomain (EP300-BD (1040-1161)) (Homo sapiens, UniProt Q09472)
T1 construct: Recombinant human EP300 bromodomain (EP300-BD (1040-1161)); made in house; host or cells: E. coli BL21-CodonPlus (DE3), modified pET vector
T1 sequence (Q09472 1040-1161): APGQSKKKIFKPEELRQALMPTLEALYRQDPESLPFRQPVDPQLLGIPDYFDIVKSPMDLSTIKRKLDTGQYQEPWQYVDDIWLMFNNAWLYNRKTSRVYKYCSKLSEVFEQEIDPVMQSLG
Test: EP300 Alphascreen binding assay
Method in brief: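 Displacement of a biotinylated acetyl-K56 histone H3 peptide from the N-His bromodomain construct (1040-1161) measured by AlphaScreen proximity, beads at 7.5 μg/ml final, read 60 min after addition. Protein, peptide and compound first incubated 1 h at room temperature, pH 7.5 HEPES buffer; IC50 by four-parameter logistic fit.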

Row | SMILES | IC50
1 | CCOc1cc(C(=O)O)cc(OCC)c1-n1cc(-c2cnn(CS(C)(=O)=O)c2)c2ncc(-c3c(C)noc3C)cc21 [P-0258, 4-(6-(3,5-dimethylisoxazol-4-yl)-3-(1-((methylsulfonyl)methyl)-1H-pyrazol-4-yl)-1H-pyrrolo[3,2-b]pyridin-1-yl)-3,5-diethoxybenzoic acid] | 0.0001 to 1 µM
2 | CCOc1cc(C(=O)O)cc(OCC)c1-n1cc(-c2cn(C(C)C)nc2C)c2ncc(-c3c(C)noc3C)cc21 [P-0259, 4-(6-(3,5-dimethylisoxazol-4-yl)-3-(1-isopropyl-3-methyl-1H-pyrazol-4-yl)-1H-pyrrolo[3,2-b]pyridin-1-yl)-3,5-diethoxybenzoic acid] | 0.0001 to 1 µM
3 | CCOc1cc(C(=O)O)cc(OCC)c1-n1cc(-c2cnn(CC(C)(C)O)c2)c2ncc(-c3c(C)noc3C)cc21 [P-0260, 4-(6-(3,5-dimethylisoxazol-4-yl)-3-(1-(2-hydroxy-2-methylpropyl)-1H-pyrazol-4-yl)-1H-pyrrolo[3,2-b]pyridin-1-yl)-3,5-diethoxybenzoic acid] | 0.0001 to 1 µM
4 | CCOc1cc(C(=O)O)cc(OCC)c1-n1cc(-c2cnn(C(F)F)c2)c2ncc(-c3c(C)noc3C)cc21 [P-0261, 4-(3-(1-(difluoromethyl)-1H-pyrazol-4-yl)-6-(3,5-dimethylisoxazol-4-yl)-1H-pyrrolo[3,2-b]pyridin-1-yl)-3,5-diethoxybenzoic acid] | 0.0001 to 1 µM
5 | CCOc1cc(C(=O)O)cc(OCC)c1-n1cc(-c2cnn(CCN(C)C)c2)c2ncc(-c3c(C)noc3C)cc21 [P-0262, 4-(3-(1-(2-(dimethylamino)ethyl)-1H-pyrazol-4-yl)-6-(3,5-dimethylisoxazol-4-yl)-1H-pyrrolo[3,2-b]pyridin-1-yl)-3,5-diethoxybenzoic acid] | 0.0001 to 1 µM
6 | CCOc1cc(C(=O)O)cc(OCC)c1-n1cc(-c2cn(C)nc2C)c2ncc(-c3c(C)noc3C)cc21 [P-0263, 4-(3-(1,3-dimethyl-1H-pyrazol-4-yl)-6-(3,5-dimethylisoxazol-4-yl)-1H-pyrrolo[3,2-b]pyridin-1-yl)-3,5-diethoxybenzoic acid] | 0.0001 to 1 µM
7 | CCOc1cc(C(=O)O)cc(OCC)c1-n1cc(-c2cnn(CC3CC3)c2)c2ncc(-c3c(C)noc3C)cc21 [P-0264, 4-(3-(1-(cyclopropylmethyl)-1H-pyrazol-4-yl)-6-(3,5-dimethylisoxazol-4-yl)-1H-pyrrolo[3,2-b]pyridin-1-yl)-3,5-diethoxybenzoic acid] | 0.0001 to 1 µM
8 | CCOc1cc(C(=O)O)cc(OCC)c1-n1cc(-c2cnn(C3CC3)c2)c2ncc(-c3c(C)noc3C)cc21 [P-0265, 4-(3-(1-cyclopropyl-1H-pyrazol-4-yl)-6-(3,5-dimethylisoxazol-4-yl)-1H-pyrrolo[3,2-b]pyridin-1-yl)-3,5-diethoxybenzoic acid] | 0.0001 to 1 µM
9 | CCOc1cc(C(=O)O)cc(OCC)c1-n1cc(-c2cnn(CCC#N)c2)c2ncc(-c3c(C)noc3C)cc21 [P-0266, 4-(3-(1-(2-cyanoethyl)-1H-pyrazol-4-yl)-6-(3,5-dimethylisoxazol-4-yl)-1H-pyrrolo[3,2-b]pyridin-1-yl)-3,5-diethoxybenzoic acid] | 0.0001 to 1 µM
10 | CCOc1cc(C(=O)O)cc(OCC)c1-n1cc(-c2cnn(CC(=O)N(C)C)c2)c2ncc(-c3c(C)noc3C)cc21 [P-0267, 4-(3-(1-(2-(dimethylamino)-2-oxoethyl)-1H-pyrazol-4-yl)-6-(3,5-dimethylisoxazol-4-yl)-1H-pyrrolo[3,2-b]pyridin-1-yl)-3,5-diethoxybenzoic acid] | 0.0001 to 1 µM
11 | Cc1noc(C)c1-c1cnc2c(c1)c(-c1cc(C(=O)O)ccc1OC(F)(F)F)cn2-c1ccc(F)cc1F [P-0268, 3-(1-(2,4-difluorophenyl)-5-(3,5-dimethylisoxazol-4-yl)-1H-pyrrolo[2,3-b]pyridin-3-yl)-4-(trifluoromethoxy)benzoic acid] | 0.0001 to 1 µM
12 | Cc1noc(C)c1-c1cnc2c(-c3ccc(F)cc3F)cn(-c3c(OC(C)C)cc(C(=O)O)cc3OC(C)C)c2c1 [P-0269, 4-(3-(2,4-difluorophenyl)-6-(3,5-dimethylisoxazol-4-yl)-1H-pyrrolo[3,2-b]pyridin-1-yl)-3,5-diisopropoxybenzoic acid] | 0.0001 to 1 µM
13 | CCOc1cc(C(=O)O)cc(OCC)c1-n1cc(CC2CCC2)c2ncc(-n3c(C)nnc3C)cc21 [P-0270, 4-(3-(cyclobutylmethyl)-6-(3,5-dimethyl-4H-1,2,4-triazol-4-yl)-1H-pyrrolo[3,2-b]pyridin-1-yl)-3,5-diethoxybenzoic acid] | 1 to 8 µM
14 | CCOc1cc(C(=O)O)cc(OCC)c1-n1cc(C2CCC(F)(F)CC2)c2ncc(-c3c(C)noc3C)cc21 [P-0271, 4-(3-(4,4-difluorocyclohexyl)-6-(3,5-dimethylisoxazol-4-yl)-1H-pyrrolo[3,2-b]pyridin-1-yl)-3,5-diethoxybenzoic acid] | 0.0001 to 1 µM
15 | Cc1noc(C)c1-c1cnc2c(c1)c(-c1cnn(CC(=O)O)c1)cn2-c1ncccc1C#CC1CC1 [P-0272, 2-(4-(1-(3-(cyclopropylethynyl)pyridin-2-yl)-5-(3,5-dimethylisoxazol-4-yl)-1H-pyrrolo[2,3-b]pyridin-3-yl)-1H-pyrazol-1-yl)acetic acid] | 0.0001 to 1 µM
16 | Cc1noc(C)c1-c1cnc2c(c1)c(-c1ccc(C(=O)O)cc1OC(F)F)cn2-c1ccccc1 [P-0273, 3-(difluoromethoxy)-4-(5-(3,5-dimethylisoxazol-4-yl)-1-phenyl-1H-pyrrolo[2,3-b]pyridin-3-yl)benzoic acid] | 0.0001 to 1 µM
17 | Cc1noc(C)c1-c1cnc2c(-c3ccccc3)cn(-c3cc(C(=O)O)ccc3OC(F)(F)F)c2c1 [P-0274, 3-(6-(3,5-dimethylisoxazol-4-yl)-3-phenyl-1H-pyrrolo[3,2-b]pyridin-1-yl)-4-(trifluoromethoxy)benzoic acid] | 0.0001 to 1 µM
18 | Cc1noc(C)c1-c1cnc2c(c1)c(-c1ccc(C(=O)O)cc1OC(C)C)cn2-c1ccccc1 [P-0275, 4-(5-(3,5-dimethylisoxazol-4-yl)-1-phenyl-1H-pyrrolo[2,3-b]pyridin-3-yl)-3-isopropoxybenzoic acid] | 0.0001 to 1 µM
19 | Cc1noc(C)c1-c1cnc2c(c1)c(-c1ccc(C(=O)O)cc1OC1CCC1)cn2-c1ccccc1 [P-0276, 3-cyclobutoxy-4-(5-(3,5-dimethylisoxazol-4-yl)-1-phenyl-1H-pyrrolo[2,3-b]pyridin-3-yl)benzoic acid] | 0.0001 to 1 µM
20 | Cc1noc(C)c1-c1cnc2c(c1)c(-c1ccc(C(=O)O)cc1OCC(F)F)cn2-c1ccccc1 [P-0277, 3-(2,2-difluoroethoxy)-4-(5-(3,5-dimethylisoxazol-4-yl)-1-phenyl-1H-pyrrolo[2,3-b]pyridin-3-yl)benzoic acid] | 0.0001 to 1 µM
21 | Cc1noc(C)c1-c1cnc2c(c1)c(-c1ccc(C(=O)O)cc1OCC(F)(F)F)cn2-c1ccccc1 [P-0278, 4-(5-(3,5-dimethylisoxazol-4-yl)-1-phenyl-1H-pyrrolo[2,3-b]pyridin-3-yl)-3-(2,2,2-trifluoroethoxy)benzoic acid] | 0.0001 to 1 µM
22 | Cc1noc(C)c1-c1cnc2c(c1)c(-c1ccc(C(=O)O)cc1OC(F)(F)F)cn2-c1ccc(F)cc1 [P-0279, 4-(5-(3,5-dimethylisoxazol-4-yl)-1-(4-fluorophenyl)-1H-pyrrolo[2,3-b]pyridin-3-yl)-3-(trifluoromethoxy)benzoic acid] | 0.0001 to 1 µM
23 | Cc1noc(C)c1-c1cnc2c(c1)c(-c1cnn(CC(=O)O)c1)cn2C(C1CC1)C1CC1 [P-0280, 2-(4-(1-(dicyclopropylmethyl)-5-(3,5-dimethylisoxazol-4-yl)-1H-pyrrolo[2,3-b]pyridin-3-yl)-1H-pyrazol-1-yl)acetic acid] | 0.0001 to 1 µM
24 | Cc1noc(C)c1-c1cnc2c(c1)c(-c1ccc(C(=O)O)cc1OC(F)(F)F)cn2-c1cnc(N2CCC2)nc1 [P-0281, 4-(1-(2-(azetidin-1-yl)pyrimidin-5-yl)-5-(3,5-dimethylisoxazol-4-yl)-1H-pyrrolo[2,3-b]pyridin-3-yl)-3-(trifluoromethoxy)benzoic acid] | 0.0001 to 1 µM
25 | Cc1noc(C)c1-c1cnc2c(c1)c(-c1ccc(C(=O)O)cc1OC(F)(F)F)cn2-c1ccc(S(C)(=O)=O)cc1 [P-0282, 4-(5-(3,5-dimethylisoxazol-4-yl)-1-(4-(methylsulfonyl)phenyl)-1H-pyrrolo[2,3-b]pyridin-3-yl)-3-(trifluoromethoxy)benzoic acid] | 0.0001 to 1 µM
26 | Cc1noc(C)c1-c1cnc2c(c1)c(-c1c(Cl)cc(C(=O)O)cc1OC(C)C)cn2C(C1CC1)C1CC1 [P-0283, 3-chloro-4-(1-(dicyclopropylmethyl)-5-(3,5-dimethylisoxazol-4-yl)-1H-pyrrolo[2,3-b]pyridin-3-yl)-5-isopropoxybenzoic acid] | 0.0001 to 1 µM
27 | Cc1noc(C)c1-c1cnc2c(c1)c(-c1cc(C(=O)O)ccc1OC(F)(F)F)cn2C(C1CC1)C1CC1 [P-0284, 3-(1-(dicyclopropylmethyl)-5-(3,5-dimethylisoxazol-4-yl)-1H-pyrrolo[2,3-b]pyridin-3-yl)-4-(trifluoromethoxy)benzoic acid] | 0.0001 to 1 µM
28 | Cc1noc(C)c1-c1cnc2c(c1)c(-c1ccc(C(=O)O)cc1OC(F)(F)F)cn2[C@H]1CCOC1 [P-0285, (S)-4-(5-(3,5-dimethylisoxazol-4-yl)-1-(tetrahydrofuran-3-yl)-1H-pyrrolo[2,3-b]pyridin-3-yl)-3-(trifluoromethoxy)benzoic acid] | 0.0001 to 1 µM
29 | Cc1noc(C)c1-c1cnc2c(c1)c(-c1ccc(C(=O)O)cc1OC(F)(F)F)cn2[C@@H]1CCOC1 [P-0286, (R)-4-(5-(3,5-dimethylisoxazol-4-yl)-1-(tetrahydrofuran-3-yl)-1H-pyrrolo[2,3-b]pyridin-3-yl)-3-(trifluoromethoxy)benzoic acid] | 0.0001 to 1 µM
